In test [1] the test system is HL-60. Briefly: Induction of apoptosis in human HL60 cells at 80 uM after 6 hrs by fluorescence microscopy. It counts as functional.
For test [2], the system named is HL-60. Briefly: Antiproliferative activity against human HL60 cells after 72 hrs. It counts as functional. Particulars: HL-60, 72 h.
Test [3] deals with HL-60. The experiment in a line: Induction of apoptosis in human HL60 cells assessed as accumulation of cells in subG1 phase at 80 uM after 6 hrs by FACS method. Type of test: functional. In general terms: In flow cytometry, cells or beads pass a laser one at a time.
The subject of test [4] is HL-60. Briefly: Induction of apoptosis in human HL60 cells assessed as DNA fragmentation at 80 uM after 6 hrs. Type of test: functional, cell-based.

SMILES strings stand for the structures. Active and inactive are the calls of the source. The rule behind the calls is not given here.

Broadly, the GI50 is the concentration giving 50% growth inhibition. A low value points to more potent growth inhibition. Turning to `CC1(C)C(=O)CC[C@]2(C)C3C(=O)C=C4[C@@H]5C[C@](C)(C(=O)O)CC[C@]5(C)CC[C@@]4(C)[C@]3(C)CC[C@@H]12` (stereo partly drawn), in the test on HL-60 [1], the Activity was 28.5%. In addition, growth in the test on HL-60 [2] was halved (GI50) at 59.6 µM.
For the compound `CO/N=C1\CC[C@]2(C)C3C(=O)C=C4[C@@H]5C[C@](C)(C(=O)O)CC[C@]5(C)CC[C@@]4(C)[C@]3(C)CC[C@H]2C1(C)C` (stereo partly drawn), the Activity in the test on HL-60 [1] stood at 60.2%; in the test with HL-60 [3] it was 70.9%. It took 36.1 µM to inhibit growth in the test on HL-60 [2] by half (GI50). Besides, in the test with HL-60 [4], the outcome was Active.
In the case of `CCC(=O)O/N=C1\CC[C@]2(C)C3C(=O)C=C4[C@@H]5C[C@](C)(C(=O)O)CC[C@]5(C)CC[C@@]4(C)[C@]3(C)CC[C@H]2C1(C)C` (stereo partly drawn), in the test with HL-60 [1], the Activity was 27.7%. Moreover, halving of growth in the test with HL-60 [2] (GI50) required 57.7 µM.
`CC1(C)/C(=N/O)CC[C@]2(C)C3C(=O)C=C4[C@@H]5C[C@](C)(C(=O)O)CC[C@]5(C)CC[C@@]4(C)[C@]3(C)CC[C@@H]12` (stereo partly drawn): the Activity in the test on HL-60 [1] is reported as 24.5%. Moreover, the GI50 with HL-60 [2] stood at 63 µM.
Consider `CCO/N=C1\CC[C@]2(C)C3C(=O)C=C4[C@@H]5C[C@](C)(C(=O)OC)CC[C@]5(C)CC[C@@]4(C)[C@]3(C)CC[C@H]2C1(C)C` (stereo partly drawn), for which the Activity with HL-60 [1] is reported as 8.6%. In addition, the GI50 in the test with HL-60 [2] turned out to be 19.1 µM.
In the case of `CCO/N=C1\CC[C@]2(C)C3C(=O)C=C4[C@@H]5C[C@](C)(C(=O)O)CC[C@]5(C)CC[C@@]4(C)[C@]3(C)CC[C@H]2C1(C)C` (stereo partly drawn), the Activity came to 59.7% in the test with HL-60 [1] and 68.7% in the test on HL-60 [3]. In the test with HL-60 [2], this compound registered a GI50 of 24.4 µM. Moreover, the outcome in the test with HL-60 [4] was Active.
On to `CCCO/N=C1\CC[C@]2(C)C3C(=O)C=C4[C@@H]5C[C@](C)(C(=O)OC)CC[C@]5(C)CC[C@@]4(C)[C@]3(C)CC[C@H]2C1(C)C` (stereo partly drawn), for which the Activity in the test on HL-60 [1] came to 4.9%. The compound further yielded a GI50 in the test with HL-60 [2] of 19 µM.
On to `CCCO/N=C1\CC[C@]2(C)C3C(=O)C=C4[C@@H]5C[C@](C)(C(=O)O)CC[C@]5(C)CC[C@@]4(C)[C@]3(C)CC[C@H]2C1(C)C` (stereo partly drawn), for which the figures for the Activity with HL-60 [1] and with HL-60 [3] were 87.3% and 80.3%, respectively. The compound further registered a GI50 with HL-60 [2] of 20.6 µM. For the same compound, the outcome in the test on HL-60 [4] was Active.
In turn, `CC(=O)O/N=C1\CC[C@]2(C)C3C(=O)C=C4[C@@H]5C[C@](C)(C(=O)O)CC[C@]5(C)CC[C@@]4(C)[C@]3(C)CC[C@H]2C1(C)C` (stereo partly drawn) gave an Activity in the test with HL-60 [1] of 19.1%. For the same compound, in the test with HL-60 [2], it took 58.8 µM to inhibit growth by half (GI50).
Regarding `CC1(C)[C@@H](O)CC[C@]2(C)C3C(=O)C=C4[C@@H]5C[C@](C)(C(=O)O)CC[C@]5(C)CC[C@@]4(C)[C@]3(C)CC[C@@H]12` (stereo partly drawn), the results for the Activity with HL-60 [1] and with HL-60 [3] were 24.9% and 12.7%, respectively. It took 63.2 µM to inhibit growth with HL-60 [2] by half (GI50). Moreover, the result in the test with HL-60 [4] was inactive.

These data come from ChEMBL document CHEMBL1149621, “The synthesis of 18beta-glycyrrhetinic acid derivatives which have increased antiproliferative and apoptotic effects in leukemia cells” (2007).
